Where two headings read alike, the source gives them in different places. Each block holds one molecule with its values, some of them ahead of it.
What was measured:
[1] = tested on: Staphylococcus aureus (MSSA) biofilms; experiment: Minimum biofilm eradication concentration (MBEC), regrowth assay; format: cell-based; set-up: MBEC MSSA: unit not given here; conditions: for MBEC MSSA: Table 5, regrowth OD under 0.1 (italics: OD < 0.5); for MBEC v SA: Table 1
Protocol: (§1) A regrowth assay was used to establish the MBEC of a compound to evaluate the antibiofilm activity. See also H. Ceri, M. Olson, D. Morck, D. Storey, R. Read, A. Buret, B. Olson, Methods Enzymol. 2001, 337, 377, which is incorporated by reference herein in its entirety.
(§2) To each well of a flat-bottomed 96-well plate (Corning 3370), 8 μL of overnight bacterial culture was brought to a volume of 200 μL with fresh media (BHI for MSSA and MRSA). Plates were incubated statically for 24 hours at 37° C. to establish biofilms. After 24 hours, the wells were carefully emptied by inverting the plate and gently shaking. A pre-mixed solution of media and compound stock solution was added to each well and plates were incubated at 37° C. 16 hours after pre-established biofilms were treated with compound, the media from each well was removed, biofilms were washed three times with 200 μL PBS to remove planktonic cells, and biofilms were incubated overnight at 37° C. in 200 μL of fresh media to allow any viable cells to continue growing. The wells were then vigorously pipetted to resuspend the biofilm cells and the OD at 595 nm was measured using a plate reader (POLARstar Omega, BMG Labtech). Biofilms reaching a final OD of less than 0.1 were considered eradicated and the lowest concentration of antibiotic corresponded to the MBEC. Four replicates were completed for each concentration of compound as well as positive and negative controls.

[2] = tested on: MRSA biofilms (S. aureus USA300-0114); experiment: as above; format: cell-based, Staphylococcus aureus; set-up: MBEC MRSA: unit not given here; conditions: for MBEC MRSA: Table 5, regrowth OD under 0.1 (italics: OD < 0.5); for MBEC v MRSA: Table 2, pre-formed MRSA biofilms
Protocol: as §1, §2

[3] = tested on: community-acquired methicillin-resistant Staphylococcus aureus CA-MRSA (USA300-0114); experiment: Minimum inhibitory concentration (MIC); format: cell-based; set-up: MIC MRSA: unit not given here
Protocol: (§3) As used herein, the term “minimum inhibitory concentration (MIC)” refers to the lowest concentration of an antimicrobial agent that will inhibit the visible growth of a microorganism after overnight incubation. MIC values against bacteria, for example, the Gram-positive Staphylococcus aureus and Enterococcus faecalis and the Gram-negative Escherichia coli and Pseudomonas aeruginosa were determined by standard methods. See also P. A. Wayne, Methods for Dilution Antimicrobial Tests for Bacteria that Grow Aerobically; Approved Standard, Ninth Edition, 2012, CLSI Document M07-A9, Vol. 32 No. 2, which is incorporated by reference herein in its entirety.
(§4) Compounds were serially diluted two-fold from a 10% DMSO/aqueous stock solution to yield twelve test concentrations. Overnight S. aureus, E. faecalis, E. coli, P. aeruginosa, CA-MRSA, and HA-MRSA cultures diluted to ca. 10^6 cfu/mL in Mueller-Hinton media and 100 μL were inoculated into each well of a U-bottom 96-well plate (BD Biosciences, BD351177) containing 100 μL of compound solution. Plates were incubated statically at 37° C. for 72 hours upon which time wells were evaluated visually for bacterial growth. The MIC was determined as the lowest concentration of compound resulting in no bacterial growth visible to the naked eye, based on the majority of three independent experiments. Positive and negative DMSO/aqueous solution and media controls were conducted for each trial. See Peng et al., 2011, Chem. Comm. 47:4896-4898.
as §4, with “trial.” for “trial. See Peng et al., 2011, Chem. Comm. 47:4896-4898.”

[4] = tested on: six bacteria (SA, HA-MRSA, CA-MRSA, EF, EC, PA); experiment: MIC against the panel of bacteria tested; format: cell-based; conditions: for antimicrobial activity: quinine- and nicotine-derived QACs, in words
Protocol: as §3
The complete set of MIC values against six bacteria [Staphylococcus aureus (SA), hospital-acquired methicillin-resistant SA (HA-MRSA), community-acquired methicillin-resistant SA (CA-MRSA), Enterococcus faecalis (EF), Escherichia coli (EC), and Pseudomonas aeruginosa (PA)] is presented in Table 3, wherein multiQACs are grouped with their monoQAC counterparts. The dye-based QACs with greatest inhibition of the complete range of Gram-positive and Gram-negative bacteria featured bis- or tris-quaternization, with the optimal alkyl total ranging from 17-24 carbons. For example, comparison of two biscationic series -LMG-n,1 and LMG-n,n—evaluates the effect of total alkyl chain length in retention of efficacy against the more challenging CA-MRSA and the Gram-negative strains EC and PA.
as §4

[5] = tested on: Staphylococcus aureus (SA; MSSA SH1000); experiment: Minimum inhibitory concentration (MIC); format: cell-based; set-up: MIC MSSA: unit not given here
Protocol: as §3, §4
as §4, with “trial.” for “trial. See Peng et al., 2011, Chem. Comm. 47:4896-4898.”

red blood cells = format: cell-based, sheep
Protocol: To date, synthesized compounds have been evaluated against planktonic bacteria (E. coli, S. aureus, P. aeruginosa, E. facaelis) and bacterial biofilms (E. facaelis, S. aureus, MRSA); new compounds are similarly assessed. All compounds are also evaluated via a hemolysis assay to assess their ability to lyse red blood cells (RBC) (Nagamune et al., 2000, Toxicology in Vitro 14:139-147). The assay is conducted following a known protocol to determine the concentration of compound that causes 20% of RBCs to be lysed. […] All compounds are benchmarked against three commercial antiseptics—benzalkonium chloride, DDAC, and CHX (FIG. 1).
Hemolysis assays were performed according to a known method (Peng et al., 2011, Chem. Comm. 47:4896-4898). Defibrinated sheep blood was purchased from Hemostat Labs (DSB030). Compounds representative of each class were serially diluted in sterile PBS from stock solutions and incubated with resuspended blood cells. The OD of the final suspensions were measured directly using plate reader. TritonX (1% by volume) served as a positive control (100% lysis marker) and sterile PBS served as a negative control (0% lysis marker).

[6] = tested on: Escherichia coli (MC4100); experiment: Minimum inhibitory concentration (MIC); format: cell-based; conditions: for MIC v EC: Table 1
Protocol: as §3, §4
as §4, with “trial.” for “trial. See Peng et al., 2011, Chem. Comm. 47:4896-4898.”

[7] = tested on: Enterococcus faecalis (OG1RF); experiment: Minimum inhibitory concentration (MIC); format: cell-based; conditions: Table 1
Protocol: as §3, §4
as §4, with “trial.” for “trial. See Peng et al., 2011, Chem. Comm. 47:4896-4898.”

[8] = tested on: Pseudomonas aeruginosa (PAO1); experiment: Minimum inhibitory concentration (MIC); format: cell-based; conditions: for MIC v PA: Table 1
Protocol: as §3, §4
as §4, with “trial.” for “trial. See Peng et al., 2011, Chem. Comm. 47:4896-4898.”

[9] = tested on: Enterococcus faecalis biofilms; experiment: Minimum biofilm eradication concentration (MBEC), regrowth assay; format: cell-based; conditions: Table 1
Excerpt: as §1

SMILES: CCCCCCCCCCCC[N+](C)(C)CCN1CC[N+](C)(CCCCCCCCCCCC)CC1 [P-12,0,12]
MBEC MSSA [1]: 200
MBEC MRSA [2]: 200

MIC v MRSA ([3]; Table 2, qac-bearing MRSA strain USA300-0114): 1 µM
MIC ([4]; FIG. 4 legend, range of MIC values): 1 to 2 µM
MIC v SA ([5]; Table 2, non-resistant S. aureus strain (SH1000)): 1 µM
Lysis20 (red blood cells): 8 µM
TI MRSA (red blood cells): 8
TI SA (red blood cells): 8
SMILES: C=CC[N+](C)(CC[N+](C)(C)CCCCCCCCCCCC)CC[N+](C)(CC=C)CC[N+](C)(C)CCCCCCCCCCCC (stereo not shown) [N4-12,allyl,allyl,12]
MBEC v MRSA [2]: 150 µM

SMILES: C=CC1C[N+]2(C)CCC1C[C@H]2[C@@H](O)c1cc[n+](C)c2ccc(OC)cc12 (stereo partly shown) [Q-1,1]
antimicrobial activity [4]: essentially no antimicrobial activity

SMILES: CCCCCCCCCCCCCCCCCCCC[N+]1(C)CC[N+](C)(C)CC[N+](C)(C)CC1 [C-20,1,1]
MBEC MSSA [1]: >200
MBEC MRSA [2]: >200

MIC v EC [6]: 2 µM
MIC v EF [7]: 2 µM
MIC v PA [8]: 8 µM
MIC v SA ([5]; Table 1): 1 µM
SMILES: CCCCCCCCCCCC[N+](C)(C)CCC[N+](C)(C)CCC[N+](C)(C)CCCCCCCCCCCC [12(3)1(3)12]
MBEC v SA [1]: 50 µM
MBEC v EF [9]: 50 µM

SMILES: CCCCCCCCCCCCCCCC[N+]1(C)CCN(C)CCN(C)CC1.[Br-] [C-16,0,0]
MBEC MSSA [1]: >200
MBEC MRSA [2]: >200

SMILES: CCCCCCCCCCCCCCCC[n+]1ccccc1 [Cetyl pyridinium chloride]
MBEC v MRSA [2]: 200 µM
Lysis20 (red blood cells; concentration at which 20% of RBCs are lysed): 8 µM
TI MRSA (red blood cells; therapeutic index, Lysis20/MIC v MRSA): 0.5
TI SA (red blood cells; therapeutic index, Lysis20/MIC v SA): 16

SMILES: CCCCCCCCCCC[N+](C)(C)CCN1CC[N+](C)(CCCCCCCCCCC)CC1 [P-11,0,11]
MBEC MSSA [1]: 100
MBEC MRSA [2]: 200

SMILES: CCCCCCCCCCC[n+]1ccc(-c2cc[n+](CCCCCCCCCCC)cc2)cc1 [PQ-11,11]
MBEC v SA [1]: 50 µM
MIC v EC [6]: 1 µM
MIC v EF [7]: 1 µM
MIC v PA [8]: 4 µM
MIC v SA ([5]; Table 1): 1 µM
MBEC v EF [9]: 50 µM

SMILES: CCCCCCCCCCC[N+](C)(C)CCN(CC[N+](C)(C)CCCCCCCCCCC)CC[N+](C)(C)CCCCCCCCCCC [T-11,11,11]
MBEC MSSA [1]: 200
MIC EC ([6]; Table 5, E. coli MC4100): 1 mm
MIC PA ([8]; Table 5, P. aeruginosa PAO1): 2 mm
MIC MRSA ([3]; Table 5, S. aureus USA300-0114): 1
MIC MSSA ([5]; Table 5, S. aureus SH1000): 0.5
MBEC MRSA [2]: >200

SMILES: C[n+]1cccc([C@@H]2CCC[N+]2(C)C)c1 [N-1,1]
antimicrobial activity [4]: essentially no antimicrobial activity

SMILES: C=CC1C[N+]2(CCCCCCCCCCCCCC)CCC1C[C@H]2[C@@H](O)c1ccnc2ccc(OC)cc12.[Br-] (stereo partly shown) [Q-14,0]
antimicrobial activity [4]: strongest activity

Reference: patent publication US20180111893A1, “POLYCATIONIC AMPHIPHILES AND POLYMERS THEREOF AS ANTIMICROBIAL AGENTS AND METHODS USING SAME” (Temple University-Of The Commonwealth System of Higher …, priority 2015, published 2018)
